This note sets out measurements from ChEMBL document CHEMBL5212743, “Selectivity Literature for EUbOPEN Chemogenomics Library wave 3” (2023).

For orientation: IC50 means the concentration that gives 50% inhibition.

Molecules are shown by their SMILES.

Assay [1] has as its target Dual specificity tyrosine-phosphorylation-regulated kinase 1B (Homo sapiens, UniProt Q9Y463). Kind of assay: Selectivity interaction (KinomeScan (DiscoverX)) EUB0000321b DYRK1B. As to conditions: at 100 nM.
The target in assay [2] is Dual specificity tyrosine-phosphorylation-regulated kinase 1A (Homo sapiens, UniProt Q13627). The experiment in a line: Selectivity interaction (KinomeScan (DiscoverX)) EUB0000321b DYRK1A. As to conditions: at 100 nM.
Assay [3] deals with Mitogen-activated protein kinase kinase kinase 5 (Homo sapiens) (UniProt Q99683). Kind of assay: Selectivity interaction (KinomeScan (DiscoverX)) EUB0000321b MAP3K5. Particulars: at 100 nM.
The target of assay [4] is Mitogen-activated protein kinase kinase kinase 5 (Homo sapiens, UniProt Q99683). The experiment in a line: Selectivity interaction (NanoBRET assay (HEK293T cells)) EUB0000321b MAP3K5. A general note: BRET reads energy transfer from a luciferase to a nearby fluorophore.
In assay [5] the target is T1, Dual specificity mitogen-activated protein kinase kinase 5 (Homo sapiens) (UniProt Q13163).
T1 sequence (whole entry): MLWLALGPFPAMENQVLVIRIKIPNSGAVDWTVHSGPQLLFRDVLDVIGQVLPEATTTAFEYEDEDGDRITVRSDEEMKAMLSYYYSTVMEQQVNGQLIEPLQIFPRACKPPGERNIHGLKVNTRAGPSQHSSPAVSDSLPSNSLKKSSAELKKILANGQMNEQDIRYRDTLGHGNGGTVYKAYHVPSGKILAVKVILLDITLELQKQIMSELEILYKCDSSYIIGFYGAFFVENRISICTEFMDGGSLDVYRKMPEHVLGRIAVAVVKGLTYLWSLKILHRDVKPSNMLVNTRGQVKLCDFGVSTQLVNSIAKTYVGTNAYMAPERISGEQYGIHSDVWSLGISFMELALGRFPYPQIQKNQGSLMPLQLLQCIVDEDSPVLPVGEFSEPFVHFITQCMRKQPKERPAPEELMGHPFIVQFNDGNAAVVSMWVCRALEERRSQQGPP
Kind of assay: Selectivity interaction (KinomeScan (DiscoverX)) EUB0000321b MAP2K5. As to conditions: at 100 nM.

Assay [6] concerns the target T2, Dual specificity mitogen-activated protein kinase kinase 5 (Homo sapiens, UniProt Q13163).
T2 sequence (Q13163 whole entry): T1 sequence (whole entry)
Kind of assay: Selectivity interaction (NanoBRET assay (HEK293T cells)) EUB0000321b MAP2K5.

Assay [7] has as its target Receptor-type tyrosine-protein kinase FLT3 (Homo sapiens, UniProt P36888). The experiment in a line: (§1) Selectivity interaction (NanoBRET assay (HEK293T cells)) EUB0000321b FLT3.
For assay [8], the target named is Receptor-type tyrosine-protein kinase FLT3 (Homo sapiens, UniProt P36888, D835V). The description is as §1.
The target in assay [9] is T3, Mast/stem cell growth factor receptor Kit (Homo sapiens, UniProt P10721). The experiment in a line: Selectivity interaction (KinomeScan (DiscoverX)) EUB0000321b KIT. Particulars: at 100 nM.
Assay [10] concerns the target T3, Mast/stem cell growth factor receptor Kit. The experiment in a line: Selectivity interaction (NanoBRET assay (HEK293T cells)) EUB0000321b KIT.
Assay [11] addresses T4, Platelet-derived growth factor receptor alpha (Homo sapiens, UniProt P16234). The experiment in a line: Selectivity interaction (KinomeScan (DiscoverX)) EUB0000321b PDGFRA. As to conditions: at 100 nM.
Assay [12] concerns the target T4, Platelet-derived growth factor receptor alpha. Kind of assay: Selectivity interaction (NanoBRET assay (HEK293T cells)) EUB0000321b PDGFRA.
The target in assay [13] is T5, Platelet-derived growth factor receptor beta (Homo sapiens, UniProt P09619). Kind of assay: Selectivity interaction (NanoBRET assay (HEK293T cells)) EUB0000321b PDGFRB.
The target in assay [14] is T5, Platelet-derived growth factor receptor beta. The experiment in a line: Selectivity interaction (KinomeScan (DiscoverX)) EUB0000321b PDGFRB. As to conditions: at 100 nM.
Assay [15] concerns the target Mu-type opioid receptor (Homo sapiens, UniProt P35372). The experiment in a line: Selectivity interaction (GPCR panel (PDSP screen)) EUB0000712a OPRM1. Particulars: at 10 µM.
Assay [16] addresses T6, Serine/threonine-protein kinase Chk2 (Homo sapiens, UniProt O96017). The experiment in a line: Selectivity interaction (KinomeScan (DiscoverX)) EUB0000712a CHEK2. As to conditions: at 1 µM.
The target in assay [17] is T6, Serine/threonine-protein kinase Chk2. Kind of assay: Selectivity interaction (NanoBRET assay (HEK293T cells)) EUB0000712a CHEK2.
The target in assay [18] is Serine/threonine-protein kinase B-raf (Homo sapiens, UniProt P15056). Kind of assay: Selectivity interaction (NanoBRET assay (HEK293T cells)) EUB0000712a BRAF.
Assay [19] concerns the target Receptor-interacting serine/threonine-protein kinase 2 (Homo sapiens) (UniProt O43353). The experiment in a line: Selectivity interaction (KinomeScan (DiscoverX)) EUB0000712a RIPK2. As to conditions: at 1 µM.
The target of assay [20] is Phosphatidylinositol 4,5-bisphosphate 3-kinase catalytic subunit alpha isoform (Homo sapiens, UniProt P42336). The experiment in a line: Selectivity interaction (KinomeScan (DiscoverX)) EUB0000712a PIK3CA. As to conditions: at 1 µM.
Assay [21] concerns the target T7, Serine/threonine-protein kinase 38-like (Homo sapiens, UniProt Q9Y2H1). The experiment in a line: Selectivity interaction (KinomeScan (DiscoverX)) EUB0000712a STK38L. Particulars: at 1 µM.
The target in assay [22] is T7, Serine/threonine-protein kinase 38-like. Kind of assay: Selectivity interaction (NanoBRET assay (HEK293T cells)) EUB0000712a STK38L.
The target of assay [23] is T8, Homeodomain-interacting protein kinase 1 (Homo sapiens, UniProt Q86Z02). The experiment in a line: Selectivity interaction (KinomeScan (DiscoverX)) EUB0000724a HIPK1. As to conditions: at 1 µM.
In assay [24] the target is T8, Homeodomain-interacting protein kinase 1. The experiment in a line: Selectivity interaction (NanoBRET assay (HEK293T cells)) EUB0000724a HIPK1.
The target of assay [25] is T9, Homeodomain-interacting protein kinase 2 (Homo sapiens, UniProt Q9H2X6). Kind of assay: Selectivity interaction (KinomeScan (DiscoverX)) EUB0000724a HIPK2. Particulars: at 1 µM.
Assay [26] has as its target T9, Homeodomain-interacting protein kinase 2. The experiment in a line: Selectivity interaction (NanoBRET assay (HEK293T cells)) EUB0000724a HIPK2.
Assay [27] addresses T10, Mitogen-activated protein kinase 15 (Homo sapiens) (UniProt Q8TD08).
T10 sequence (whole entry): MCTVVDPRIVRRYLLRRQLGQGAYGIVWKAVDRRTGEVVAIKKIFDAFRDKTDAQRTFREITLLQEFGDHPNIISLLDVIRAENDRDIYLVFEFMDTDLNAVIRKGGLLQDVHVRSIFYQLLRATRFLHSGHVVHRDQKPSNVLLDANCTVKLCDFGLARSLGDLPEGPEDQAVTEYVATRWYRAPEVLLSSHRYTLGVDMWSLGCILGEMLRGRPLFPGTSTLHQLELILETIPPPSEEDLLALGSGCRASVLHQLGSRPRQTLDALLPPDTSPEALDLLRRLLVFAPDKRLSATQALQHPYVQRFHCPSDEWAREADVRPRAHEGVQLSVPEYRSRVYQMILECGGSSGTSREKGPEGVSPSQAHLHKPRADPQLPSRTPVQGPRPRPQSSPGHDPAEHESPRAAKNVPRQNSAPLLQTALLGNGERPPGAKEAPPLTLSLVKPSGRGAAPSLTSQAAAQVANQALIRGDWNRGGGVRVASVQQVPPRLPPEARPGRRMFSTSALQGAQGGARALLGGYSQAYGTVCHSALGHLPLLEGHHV
The experiment in a line: Selectivity interaction (KinomeScan (DiscoverX)) EUB0000724a MAPK15. Particulars: at 1 µM.

Assay [28] addresses T11, Serine/threonine-protein kinase 16 (Homo sapiens, UniProt O75716). The experiment in a line: Selectivity interaction (KinomeScan (DiscoverX)) EUB0000724a STK16. As to conditions: at 1 µM.
The target in assay [29] is T11, Serine/threonine-protein kinase 16. The experiment in a line: Selectivity interaction (NanoBRET assay (HEK293T cells)) EUB0000724a STK16.
Assay [30] deals with Serine/threonine-protein kinase Nek7 (Homo sapiens, UniProt Q8TDX7). Kind of assay: Selectivity interaction (KinomeScan (DiscoverX)) EUB0000724a NEK7. Particulars: at 1 µM.
In assay [31] the target is T12, Phosphatidylinositol 5-phosphate 4-kinase type-2 beta (Homo sapiens) (UniProt P78356).
T12 sequence (whole entry): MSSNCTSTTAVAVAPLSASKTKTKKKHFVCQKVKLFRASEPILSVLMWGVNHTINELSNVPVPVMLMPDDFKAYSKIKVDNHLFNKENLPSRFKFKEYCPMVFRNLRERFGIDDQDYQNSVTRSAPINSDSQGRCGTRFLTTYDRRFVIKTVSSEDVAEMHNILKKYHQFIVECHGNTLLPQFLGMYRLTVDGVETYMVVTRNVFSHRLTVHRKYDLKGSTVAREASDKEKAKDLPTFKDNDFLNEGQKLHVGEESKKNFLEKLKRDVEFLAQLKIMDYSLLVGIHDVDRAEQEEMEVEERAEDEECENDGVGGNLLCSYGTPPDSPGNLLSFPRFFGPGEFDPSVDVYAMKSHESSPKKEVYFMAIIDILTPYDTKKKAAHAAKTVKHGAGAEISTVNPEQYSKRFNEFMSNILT
The experiment in a line: Selectivity interaction (KinomeScan (DiscoverX)) EUB0000724a PIP4K2B. As to conditions: at 1 µM.

T6 sequence (O96017 whole entry): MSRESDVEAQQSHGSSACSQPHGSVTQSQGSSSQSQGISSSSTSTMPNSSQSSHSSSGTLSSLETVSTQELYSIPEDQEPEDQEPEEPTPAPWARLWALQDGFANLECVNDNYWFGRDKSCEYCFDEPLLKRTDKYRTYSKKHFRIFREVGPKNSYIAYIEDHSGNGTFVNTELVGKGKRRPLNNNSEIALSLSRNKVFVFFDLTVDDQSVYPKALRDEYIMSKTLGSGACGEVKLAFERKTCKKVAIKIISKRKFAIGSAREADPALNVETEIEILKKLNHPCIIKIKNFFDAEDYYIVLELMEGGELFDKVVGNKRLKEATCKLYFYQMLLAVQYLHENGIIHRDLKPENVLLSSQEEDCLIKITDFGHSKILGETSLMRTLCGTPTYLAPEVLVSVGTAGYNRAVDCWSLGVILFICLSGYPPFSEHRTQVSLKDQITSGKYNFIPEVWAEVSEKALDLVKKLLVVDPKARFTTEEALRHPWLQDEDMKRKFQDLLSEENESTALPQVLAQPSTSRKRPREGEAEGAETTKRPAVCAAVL
T3 sequence (P10721 whole entry): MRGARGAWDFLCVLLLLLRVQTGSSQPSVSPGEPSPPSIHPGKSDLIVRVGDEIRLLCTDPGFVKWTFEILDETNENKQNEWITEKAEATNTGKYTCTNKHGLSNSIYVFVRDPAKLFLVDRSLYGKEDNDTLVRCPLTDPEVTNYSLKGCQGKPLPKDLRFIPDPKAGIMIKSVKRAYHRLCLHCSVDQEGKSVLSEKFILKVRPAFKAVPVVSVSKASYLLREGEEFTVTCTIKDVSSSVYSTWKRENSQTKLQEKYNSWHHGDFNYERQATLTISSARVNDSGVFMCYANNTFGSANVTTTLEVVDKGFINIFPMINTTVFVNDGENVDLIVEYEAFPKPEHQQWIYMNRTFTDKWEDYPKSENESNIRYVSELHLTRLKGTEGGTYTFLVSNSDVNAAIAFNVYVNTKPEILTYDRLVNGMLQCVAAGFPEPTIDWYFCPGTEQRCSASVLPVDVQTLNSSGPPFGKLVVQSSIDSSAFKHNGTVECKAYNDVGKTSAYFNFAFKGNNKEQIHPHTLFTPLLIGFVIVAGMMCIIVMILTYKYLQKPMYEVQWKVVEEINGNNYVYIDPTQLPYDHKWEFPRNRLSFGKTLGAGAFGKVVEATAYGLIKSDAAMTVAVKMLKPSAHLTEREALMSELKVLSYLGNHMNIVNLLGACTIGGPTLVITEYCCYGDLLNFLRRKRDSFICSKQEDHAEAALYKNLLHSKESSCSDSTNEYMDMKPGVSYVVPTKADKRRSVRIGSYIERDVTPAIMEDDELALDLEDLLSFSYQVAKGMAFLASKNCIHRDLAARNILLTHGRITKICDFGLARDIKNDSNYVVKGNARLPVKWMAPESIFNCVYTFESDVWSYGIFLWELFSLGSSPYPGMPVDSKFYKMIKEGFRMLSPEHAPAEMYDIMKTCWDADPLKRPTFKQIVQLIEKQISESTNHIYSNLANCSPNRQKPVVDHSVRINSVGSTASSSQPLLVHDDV
T5 sequence (P09619 whole entry): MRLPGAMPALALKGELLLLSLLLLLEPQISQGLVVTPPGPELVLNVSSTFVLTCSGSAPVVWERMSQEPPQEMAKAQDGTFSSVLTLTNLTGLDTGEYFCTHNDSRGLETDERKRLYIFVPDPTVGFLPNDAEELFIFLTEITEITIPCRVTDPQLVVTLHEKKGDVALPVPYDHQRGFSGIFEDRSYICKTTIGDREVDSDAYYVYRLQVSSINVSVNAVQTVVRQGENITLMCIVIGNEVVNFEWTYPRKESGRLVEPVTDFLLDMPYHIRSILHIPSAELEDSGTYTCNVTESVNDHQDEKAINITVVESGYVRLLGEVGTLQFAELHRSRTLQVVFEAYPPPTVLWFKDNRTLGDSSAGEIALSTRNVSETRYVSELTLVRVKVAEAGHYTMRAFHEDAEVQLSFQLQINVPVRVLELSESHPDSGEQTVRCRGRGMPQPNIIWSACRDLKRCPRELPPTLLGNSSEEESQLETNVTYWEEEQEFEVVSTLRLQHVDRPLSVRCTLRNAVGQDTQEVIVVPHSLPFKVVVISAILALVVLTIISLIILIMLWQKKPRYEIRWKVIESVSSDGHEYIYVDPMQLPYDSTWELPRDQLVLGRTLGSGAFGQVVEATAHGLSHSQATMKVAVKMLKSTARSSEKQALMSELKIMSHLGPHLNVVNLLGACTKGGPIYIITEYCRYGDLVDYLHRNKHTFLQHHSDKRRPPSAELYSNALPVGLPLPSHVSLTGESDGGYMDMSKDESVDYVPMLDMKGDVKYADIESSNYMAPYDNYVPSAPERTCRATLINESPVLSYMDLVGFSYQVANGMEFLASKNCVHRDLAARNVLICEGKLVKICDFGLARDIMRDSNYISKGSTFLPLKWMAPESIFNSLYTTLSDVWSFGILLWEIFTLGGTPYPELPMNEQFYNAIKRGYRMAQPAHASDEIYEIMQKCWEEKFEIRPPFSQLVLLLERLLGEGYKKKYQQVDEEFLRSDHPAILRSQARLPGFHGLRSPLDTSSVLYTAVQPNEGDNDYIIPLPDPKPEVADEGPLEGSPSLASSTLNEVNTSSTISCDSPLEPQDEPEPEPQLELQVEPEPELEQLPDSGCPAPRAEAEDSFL
T4 sequence (P16234 whole entry): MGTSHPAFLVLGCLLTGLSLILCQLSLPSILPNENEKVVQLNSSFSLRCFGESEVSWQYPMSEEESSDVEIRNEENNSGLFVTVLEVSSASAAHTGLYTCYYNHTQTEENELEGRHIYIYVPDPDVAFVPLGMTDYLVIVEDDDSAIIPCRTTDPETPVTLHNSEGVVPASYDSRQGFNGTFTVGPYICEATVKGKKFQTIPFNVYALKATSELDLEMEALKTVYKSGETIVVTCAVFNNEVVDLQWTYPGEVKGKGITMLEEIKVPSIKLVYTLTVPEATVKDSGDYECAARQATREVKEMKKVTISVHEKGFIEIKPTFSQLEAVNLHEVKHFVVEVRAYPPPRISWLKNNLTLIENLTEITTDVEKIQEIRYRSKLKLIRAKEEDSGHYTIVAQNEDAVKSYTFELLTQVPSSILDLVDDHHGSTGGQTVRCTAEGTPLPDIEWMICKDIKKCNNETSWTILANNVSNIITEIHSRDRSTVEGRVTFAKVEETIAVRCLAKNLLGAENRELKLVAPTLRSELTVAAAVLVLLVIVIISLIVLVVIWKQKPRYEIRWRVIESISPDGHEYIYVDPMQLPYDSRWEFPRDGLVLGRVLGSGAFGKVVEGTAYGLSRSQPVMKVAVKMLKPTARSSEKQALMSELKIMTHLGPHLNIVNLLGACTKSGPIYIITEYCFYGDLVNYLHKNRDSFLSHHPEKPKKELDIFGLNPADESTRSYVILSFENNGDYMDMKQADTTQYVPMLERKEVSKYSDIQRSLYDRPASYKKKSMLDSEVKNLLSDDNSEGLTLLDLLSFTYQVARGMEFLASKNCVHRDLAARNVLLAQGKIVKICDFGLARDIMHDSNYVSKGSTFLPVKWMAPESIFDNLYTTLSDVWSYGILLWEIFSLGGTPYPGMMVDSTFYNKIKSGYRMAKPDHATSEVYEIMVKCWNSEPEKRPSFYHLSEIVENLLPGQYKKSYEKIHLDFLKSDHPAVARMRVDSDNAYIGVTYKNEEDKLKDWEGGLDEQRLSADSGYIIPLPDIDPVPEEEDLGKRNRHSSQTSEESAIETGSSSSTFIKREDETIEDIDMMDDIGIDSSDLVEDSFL
T11 sequence (O75716 whole entry): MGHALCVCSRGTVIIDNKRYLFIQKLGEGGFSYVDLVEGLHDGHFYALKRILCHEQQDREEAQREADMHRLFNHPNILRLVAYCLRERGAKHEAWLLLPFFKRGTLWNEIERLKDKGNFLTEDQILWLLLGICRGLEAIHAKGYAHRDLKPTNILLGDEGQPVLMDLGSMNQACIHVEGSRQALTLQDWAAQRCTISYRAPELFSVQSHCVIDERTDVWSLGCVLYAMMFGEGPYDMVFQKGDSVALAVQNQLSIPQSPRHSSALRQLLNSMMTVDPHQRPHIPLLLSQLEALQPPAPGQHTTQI
Phosphatidylinositol 4,5-bisphosphate 3-kinase catalytic subunit alpha isoform, sequence (P42336 whole entry, canonical isoform): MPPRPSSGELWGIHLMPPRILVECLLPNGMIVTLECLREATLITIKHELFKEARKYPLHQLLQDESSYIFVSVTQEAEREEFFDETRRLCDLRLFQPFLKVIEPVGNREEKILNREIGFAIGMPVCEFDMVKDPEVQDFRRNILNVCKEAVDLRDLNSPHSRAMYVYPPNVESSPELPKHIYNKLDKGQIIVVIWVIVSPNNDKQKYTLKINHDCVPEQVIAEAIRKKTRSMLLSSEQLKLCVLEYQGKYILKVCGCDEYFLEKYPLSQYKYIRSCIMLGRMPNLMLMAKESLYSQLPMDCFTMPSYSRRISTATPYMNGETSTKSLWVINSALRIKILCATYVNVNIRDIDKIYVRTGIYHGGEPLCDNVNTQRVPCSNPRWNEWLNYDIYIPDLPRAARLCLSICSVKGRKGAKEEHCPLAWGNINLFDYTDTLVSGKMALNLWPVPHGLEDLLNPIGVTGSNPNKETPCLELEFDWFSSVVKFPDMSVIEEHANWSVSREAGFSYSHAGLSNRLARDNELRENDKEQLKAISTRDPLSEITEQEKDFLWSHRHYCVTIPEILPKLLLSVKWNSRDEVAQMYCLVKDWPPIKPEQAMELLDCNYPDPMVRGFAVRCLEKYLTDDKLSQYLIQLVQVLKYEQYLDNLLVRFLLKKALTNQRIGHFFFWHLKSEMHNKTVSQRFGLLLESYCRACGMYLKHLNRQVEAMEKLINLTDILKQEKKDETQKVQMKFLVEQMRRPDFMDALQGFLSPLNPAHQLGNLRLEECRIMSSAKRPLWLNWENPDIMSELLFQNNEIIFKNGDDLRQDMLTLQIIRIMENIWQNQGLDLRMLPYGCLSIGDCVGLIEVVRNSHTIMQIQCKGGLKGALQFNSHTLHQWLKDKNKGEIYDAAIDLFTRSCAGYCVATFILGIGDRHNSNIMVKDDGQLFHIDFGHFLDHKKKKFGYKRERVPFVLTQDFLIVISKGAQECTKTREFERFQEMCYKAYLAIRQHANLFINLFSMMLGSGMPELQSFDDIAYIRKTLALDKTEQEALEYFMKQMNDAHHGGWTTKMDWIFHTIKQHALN

As for `CN1CCN(C(=O)C(C)(C)c2ccc(C(=O)Nc3cn4cc(-c5ccncc5)ccc4n3)cc2)CC1` [T3-CLK], the % of control stood at 4.4% in [1]; 0.3% in [2]; 19% in assay [3]; 4.9% in assay [5]; 14% in assay [9]; 29% in assay [11]. This molecule came in with a % of control in assay [14] of 24%. The 50% inhibitory concentration (IC50) in assay [4] is greater than 10 µM; in assay [6], greater than 10 µM; in assay [7], 2.44 µM; in assay [8], 138 µM; in assay [10], 2.44 µM; in [12], 2.52 µM. In addition, in assay [13], the concentration for half-maximal inhibition (IC50) was found to be 3 µM.

As to `CS(=O)(=O)N1CCCC(NC(=O)[C@H](CCC2CCCCC2)NC(=O)c2ccc(CNC(=O)c3cnc4ccccn34)cc2)C1` (stereo partly specified) [SR-302], the % of inhibition in assay [15] was determined as 45.3%. Also, the % of control in assay [16] is 37%; in [19], 30%; in assay [20] it was 37%; in [21], 40%. For the same molecule, the half-maximal inhibitory concentration (IC50) in [17], in assay [18] and in assay [22] was greater than 25 µM each time.

Turning to `COc1cc(Nc2nccc(-c3cnn4nc(OC)ccc34)n2)cc(C(F)(F)F)c1`, the % of control was found to be 31% in [23]; 34% in assay [25]; 21% in [27]; 53% in [28]; 40% in assay [30]; 50% in [31]. Besides, the IC50 in [24] is greater than 10 µM; in assay [26], greater than 10 µM; in assay [29], 0.167 µM.
